Structures can show the parent of a compound that is named as a salt.

Data on eleven compounds can be found in US20100216788A1, “FUSED HETEROCYCLIC COMPOUND” (TAKEDA PHARMACEUTICAL COMPANY LIMITED, priority 2005, published 2010).

For test [1], the system named is human breast cancer cell BT-474. Kind of test: Inhibitory action on breast cancer cell BT-474 proliferation in vitro. It counts as cell-based. The settings on record: 120 h, BT-474 cells, cultured 5 days with compound, SRB staining of cell protein. The procedure:
A suspension of human breast cancer cell. BT-474 (100 μl (6,000 cells)) were seeded to attach in a 96-well microplate and cultured in an incubator (37° C., 5% carbon dioxide). On the following day, 100 μl of a solution of each test compound previously diluted serially in 2-fold, was added to give indicated dose, and the cells were cultured for 5 days. After the culture medium containing the test compound was removed, the cells were washed and fixed with 50% trichloroacetic acid, after which a 0.4% (w/v) SRB solution (dissolved in 1% acetic acid) was added to stain the cell protein (Skehan et al., Journal of the National Cancer Institute, Vol. 82, pp. 1107-1112, 1990). After washing with a 1% acetic acid solution, 100 μl of Tris solution (10 mM) was added to extract the pigment and the absorbance was measured at a wavelength of 550 nm to quantify the amount of cells as protein content. Taking as 100% the protein content for the control group, which received no test compound solution, the ratio of the residual protein content for, each treatment group was determined, and the compound concentration required to achieve 50% suppression of the residual cell content relative to the control (IC50 value) was calculated.

The target of test [2] is T1, HER2 intracellular domain (Homo sapiens, UniProt P04626).
T1 construct: made in house; host or cells: SF-21 insect cells infected with recombinant baculovirus BAC-HER2 (pFASTBAC1)
Description: Determination of HER2 kinase inhibitory activity. It counts as biochemical. The conditions noted are these: test compound at 1.0 μM, poly-Glu:Tyr (4:1) substrate, [γ-32P]ATP, 25° C. 10 min; for inhibition at 1 µM: read-out: Inhibitory rate (%) at 1.0 μM. Here is the method: Human HER2 gene was cloned by RT-PCR using total RNA prepared from MCF7 cells as a template. The primer used for RT-PCR was prepared from nucleotide sequence (Genbank Accession No. M11730) information of HER2 gene by adding a nucleotide sequence encoding DYKDDDD peptide and a restriction enzyme recognition sequence to a nucleotide sequence (2176-3918 of Genbank Accession No. M11730) encoding the HER2 intracellular domain region, so that the protein contains an N-terminal DYKDDDD peptide tag. The primer nucleotide sequence is shown below.
The RT reaction was conducted using SuperScript First-Strand Synthesis System for RT-PCR (Invitrogen) and the PCR reaction was conducted using a KOD-plus kit (TOYOBO). The obtained PCR product was electrophoresed on agarose gel (1%), the DNA fragment amplified by PCR was recovered from the gel, and then digested with restriction enzymes Sal I and Sph I. The DNA treated with the restriction enzymes was electrophoresed on agarose gel (1%), and the obtained DNA fragment was recovered and ligated to plasmid pFASTBAC1 (Invitrogen) digested with restriction enzymes Sal I and Sph I to give expression plasmid pFB-HER2. The nucleotide sequence of the insertion fragment was confirmed and found to be identical with the nucleotide sequence (2176-3918 of Genbank Accession M11730) of HER2 intracellular domain. Furthermore, using BAC-TO-BAC Baculovirus Expression System (Invitrogen), recombinant baculovirus BAC-HER2 was prepared.
SF-21 cells were sown at 1×10^6 cells/mL to Sf-900II SFM medium (1 L, Invitrogen) containing 10% fetal bovine serum (trace), 50 mg/L gentamicin (Invitrogen) and 0.1% Pluronic F-68 (Invitrogen), and shaking culture was performed using a 2 L volume Erlenmeyer flask at 27° C., 100 rpm. After culturing for 24 hr, recombinant baculovirus BAC-HER2 (13.4 mL) was added, and the mixture was further cultured for 3 days. The culture medium was centrifuged at 2,000 rpm for 5 min. to give virus-infected cells. The infected cells were washed with a phosphate buffered saline (Invitrogen), centrifuged under the same conditions, and the cells were preserved at −80° C. The cryopreserved cells were thawed in ice, suspended in buffer A (50 mM Tris buffer (30 mL, pH 7.4) containing 20% glycerol, 0.15 M NaCl) supplemented with Complete Protease Inhibitor (Boehringer), and ruptured 3 times with a Polytron homogenizer (Kinematica) at 20,000 rpm for 30 sec. The rupture medium was clarified by centrifugation at 40,000 rpm for 30 min. and filtered with a 0.45 μm filter. The filtrate was passed through a column packed with Anti-FLAG M2 Affinity Gel (4 mL, Sigma) at a flow rate of about 0.5 mL/min. The column was washed with buffer A, and eluted with buffer A containing 100 μg/mL of FLAG peptide. The eluate was concentrated with Vivaspin 20 (Vivascience) having a molecular weight cut off of 30K. The concentrate was purified by gel filtration using Hi Load Superdex 200pg 16/60 (Amersham Bioscience) equilibrated with buffer A. The fractions containing HER2 intracellular domain were collected, glycerol was added to the final concentration of 50% and cryopreserved at −80° C.
A test compound dissolved in dimethyl sulfoxide (DMSO) was diluted with a buffer for kinase reaction (50 mM Tris-HCl (pH7.5), 5 mM MgCl2, 5 mM MnCl2, 2 mM dithiothreitol, 0.01% Tween-20). To this compound solution (10 μL) was added a buffer for kinase reaction (20 μL) containing 5 μg/mL of HER2 intracellular domain obtained in Experimental Example 1B and 12.5 μg/mL of polypeptide substrate poly-Glu:Tyr (4:1) (Sigma). To the obtained mixture was added 20 μL of ATP solution (1.25 μM ATP, 0.05 μCi [γ-^32P]ATP), the mixture was allowed to react at 25° C. for 10 min. and the reaction was quenched with 50 μL of 20% TCA solution. The reaction solution was allowed to stand at 4° C. for 20 min., and the acid insoluble fraction was transferred to GF/C filter (PerkinElmer) using cell harvester (PerkinElmer) and washed with 250 mM phosphoric acid solution. […]

T1 sequence (P04626 676-1255 limits assumed): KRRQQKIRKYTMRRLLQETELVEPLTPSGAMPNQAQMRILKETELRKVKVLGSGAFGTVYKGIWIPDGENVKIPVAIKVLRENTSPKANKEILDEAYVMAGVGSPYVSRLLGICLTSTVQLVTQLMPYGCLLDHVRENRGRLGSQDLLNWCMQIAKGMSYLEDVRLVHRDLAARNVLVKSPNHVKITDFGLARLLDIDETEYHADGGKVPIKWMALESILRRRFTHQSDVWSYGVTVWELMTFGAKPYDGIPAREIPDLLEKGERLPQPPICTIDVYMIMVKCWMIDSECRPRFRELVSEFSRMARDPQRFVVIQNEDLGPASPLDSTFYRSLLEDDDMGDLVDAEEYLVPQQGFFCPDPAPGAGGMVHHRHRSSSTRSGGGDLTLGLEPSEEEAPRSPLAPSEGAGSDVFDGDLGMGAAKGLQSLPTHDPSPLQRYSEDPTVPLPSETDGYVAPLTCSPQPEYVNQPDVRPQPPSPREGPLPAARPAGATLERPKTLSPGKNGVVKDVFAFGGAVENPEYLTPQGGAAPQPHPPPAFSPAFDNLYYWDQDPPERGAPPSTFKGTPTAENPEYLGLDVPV

For the compound `Cc1cc(Nc2ncnc3ccn(CCNC(=O)CS(C)(=O)=O)c23)ccc1Oc1cccc(OCC(F)(F)F)c1` [Example C-116, 2-(methylsulfonyl)-N-{2-[4-({3-methyl-4-[3-(2,2,2-trifluoroethoxy)phenoxy]phenyl}amino)-5H-pyrrolo[3,2-d]pyrimidin-5-yl]ethyl}acetamide hydrochloride], in test [1], the IC50 was less than 100 nM.

Take `CC(C)(C)NC(=O)Cc1cccc(Oc2ccc(Nc3ncnc4ccn(CCO)c34)cc2Cl)c1` [Example C-89, N-(tert-butyl)-2-[3-(2-chloro-4-{[5-(2-hydroxyethyl)-5H-pyrrolo[3,2-d]pyrimidin-4-yl]amino}phenoxy)phenyl]acetamide]: in test [2], the inhibition at 1 µM is 100%.

For `CC(C)(C)NC(=O)c1cccc(Oc2ccc(Nc3ncnc4ccn(CCO)c34)cc2Cl)c1` [Example C-26, N-(tert-butyl)-3-(2-chloro-4-{[5-(2-hydroxyethyl)-5H-pyrrolo[3,2-d]pyrimidin-4-yl]amino}phenoxy)benzamide], the inhibition at 1 µM in test [2] was 98%.

For `CC(C)(C(=O)NCCn1ccc2ncnc(Nc3ccc(Oc4cccc(Cl)c4)c(Cl)c3)c21)S(C)(=O)=O.Cc1ccc(S(=O)(=O)O)cc1` [Example A-15, N-[2-(4-{[3-chloro-4-(3-chlorophenoxy)phenyl]amino}-5H-pyrrolo[3,2-d]pyrimidin-5-yl)ethyl]-2-methyl-2-(methylsulfonyl)propanamide p-toluenesulfonate], the “Inhibitory rate (%) at 1.0 μM” value in test [2] is 99%.

As to `CS(=O)(=O)CC(=O)NCCn1ccc2ncnc(Nc3ccc(Oc4cccc(OCC5CC5)c4)c(Cl)c3)c21` [Example C-97, N-{2-[4-({3-chloro-4-[3-(cyclopropylmethoxy)phenoxy]phenyl}amino)-5H-pyrrolo[3,2-d]pyrimidin-5-yl]ethyl}-2-(methylsulfonyl)acetamide hydrochloride], in test [1], the IC50 is less than 100 nM.

Regarding `O=C(Nc1cccc(Oc2ccc(Nc3ncnc4ccn(CCOCCO)c34)cc2Cl)c1)C1CC1` [Example C-45, N-{3-[2-chloro-4-({5-[2-(2-hydroxyethoxy)ethyl]-5H-pyrrolo[3,2-d]pyrimidin-4-yl}amino)phenoxy]phenyl}cyclopropanecarboxamide], the inhibition at 1 µM in test [2] amounted to 97%. For the same compound, the IC50 in test [1] is less than 100 nM.

Take `OCCOCCn1ccc2ncnc(Nc3cnc(Oc4cccc(C(F)(F)F)c4)c(Cl)c3)c21` [Example B-1, 2-{2-[4-({5-chloro-6-[3-(trifluoromethyl)phenoxy]pyridin-3-yl}amino)-5H-pyrrolo[3,2-d]pyrimidin-5-yl]ethoxy}ethanol]: in test [2], the inhibition at 1 µM came out at 99%.

Consider `CC(C)(C(=O)NCCn1ccc2ncnc(Nc3ccc(Oc4cccc(Cl)c4)c(Cl)c3)c21)S(C)(=O)=O` [Example A-1, N-[2-(4-{[3-chloro-4-(3-chlorophenoxy)phenyl]amino}-5H-pyrrolo[3,2-d]pyrimidin-5-yl)ethyl]-2-methyl-2-(methylsulfonyl)propanamide], for which the inhibition at 1 µM in test [2] is 98%. Further, the IC50 in test [1] is less than 100 nM.

For the compound `CC(C)(C)CC(=O)c1cccc(Oc2ccc(Nc3ncnc4ccn(CCO)c34)cc2Cl)c1` [Example E-22, 1-[3-(2-chloro-4-{[5-(2-hydroxyethyl)-5H-pyrrolo[3,2-d]pyrimidin-4-yl]amino}phenoxy)phenyl]-3,3-dimethylbutan-1-one], the inhibition at 1 µM in test [2] was determined as 99%.

`CC(C)(C)NC(=O)c1cccc(Cn2ncc3cc(Nc4ncnc5ccn(CCO)c45)ccc32)c1` [Example G-14, N-(tert-butyl)-3-[(5-{[5-(2-hydroxyethyl)-5H-pyrrolo[3,2-d]pyrimidin-4-yl]amino}-1H-indazol-1-yl)methyl]benzamide]: the inhibition at 1 µM in test [2] came out at 100%.

With `CC(C)(O)CC(=O)NCCn1ccc2ncnc(Nc3ccc4c(cnn4Cc4cccc(F)c4)c3)c21` [Example G-5, N-[2-(4-{[1-(3-fluorobenzyl)-1H-indazol-5-yl]amino}-5H-pyrrolo[3,2-d]pyrimidin-5-yl)ethyl]-3-hydroxy-3-methylbutanamide], the inhibition at 1 µM in test [2] stood at 93%. Also, in test [1], the IC50 is less than 100 nM.
